Source: PubChem BioAssay AID2060902 (Molecular Pharmacology Branch, DTP, NCI, 2025)

Tested on: 485368-065-R3-J5-PDC spheroids with HUVEC/MSC, viability
Assay: Anticancer human tumor 485368-065-R3-J5-PDC patient-derived pancreatic carcinoma cell line growth inhibition [RAS]
Details: for IC50: curve of first compound; for viability, T/C: stronger effect = lower value
Description: RAS pathway inhibitors in Combinations in Complex Spheroids
A high-throughput screen of multi-cell type tumor spheroids was designed to identify active combinations of RAS pathway inhibitors and targeted small molecules. Complex spheroids include a stromal component modeled by human endothelial cells (HUVEC) and fibroblasts modeled by human mesenchymal stem cells (MSCs). The concentration ranges selected for each drug and investigational agent were based upon clinically achievable concentrations if the clinical Cmax of the agent was known.
Compounds. The drugs and investigational agents: abemaciclib (NSC768073), cobimetinib (NSC768068), divarasib (GDC6063, NSC841802), docetaxel (NSC628503), GDC-1971 (RLY-1971, NSC841576), gemcitabine (NSC613327), inavolisib (NSC800729), ipatasertib (NSC767898), KB-0742 (NSC834161), MRTX-1133 (NSC836407), osimertinib (NSC779217), RMC-4630 (NSC839698), RMC-6236 (NSC851965), RMC-6291 (NSC852671), Ro-3306 (NSC812927), sapanisertib (NSC764658), SN-38 (NSC673596), staurosporine (NSC755774), SY5609 (NSC837396), and tovorafenib (DAY101, NSC766906), were obtained from the National Cancer Institute (NCI) Developmental Therapeutics Program Chemical Repository. The FDA-approved anticancer drug set is available from the NCI Developmental Therapeutics Program. […] The stock solutions were prepared in dimethyl sulfoxide (DMSO, Sigma-Aldrich, St. Louis, MO, cat. D2650) at 800-fold the tested concentration and stored at -70 degrees C prior to their use. All drugs and investigational agents were tested over a range starting from a high concentration at or near the clinical Cmax and decreasing in half-log increments. If the clinical Cmax for an agent had not been determined, the highest concentration tested was 10 microM.
Cell Culture. All cells were maintained in an incubator at 37 degrees C and 5% CO2 with 95% humidity. The PDC lines were cultured according to standard operating procedures established by the NCI PDMR. All PDCs were thawed and cultured in Matrigel-coated flasks prepared with a working solution of 1X Ham's F-12 nutrient mix, without supplementation (Invitrogen, Waltham, MA, cat. 11765054), 100 U/mL penicillin-streptomycin (Invitrogen, cat. 15140122), and 2.5% Matrigel (Corning Inc., Corning, NY, cat. 354248) for the first three passages. The 362531-283-R-J2-PDC and 782815-120-R-J1-PDC lines were cultured in 6C/Colon 1B media, which includes advanced DMEM/F-12 (Thermo Fisher Scientific, cat. 12634028), 10 mM HEPES (Thermo Fisher Scientific, cat. 15630080), 1X GlutaMAX supplement (Thermo Fisher Scientific, cat. 35050061), 0.1 mg/mL primocin (InvivoGen, San Diego, CA, cat. ant-pm-2), 10% defined fetal bovine serum, heat inactivated (HyClone Laboratories Inc., Logan, UT, cat. SH30070.03HI), 50% L-WRN conditioned media (ATCC, cat. CRL-3276), 1.25 mM N-Acetyl-L-cysteine (Sigma-Aldrich, cat. A9165), 10 mM nicotinamide (Sigma-Aldrich, cat. N0636), 1X B-27 supplement (Thermo Fisher Scientific, cat. 17504044), 1X N-2 supplement (Thermo Fisher Scientific, cat. 17502048), 50 ng/mL human EGF (Thermo Fisher Scientific, cat. PHG0311), and 10 microM Y-27632 dihydrochloride (Tocris Bioscience, cat. 1254). The K12877-001-R-J1-PDC line was cultured in 6I media, which includes all 6C/Colon 1B media plus 10 ng/mL human FGF-10 (PeproTech, cat. 100-26), 1 ng/mL human FGF-2 (PeproTech, cat. 100-18B), 1 µM prostaglandin E2 (Tocris Bioscience, cat. 2296), […] hydrocortisone (Sigma-Aldrich, cat. H4001), and […] bovine insulin (Sigma-Aldrich, cat. I6634). The K86415-001-R-J1-PDC line was cultured in 6D media, which includes all 6C/Colon 1B media components minus the L-WRN conditioned media. The 485176-168-R4-J1-PDC was cultured in PANC media, which includes all 6C/Colon 1B media plus 100 ng/mL human FGF-10 (PeproTech, cat. 100-26), 500 nM SB-431542 (Selleckchem, cat. S1067), and 10 nM gastrin (Tocris Bioscience, cat. 3006). […]
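Note: spheroids exposed to agents for seven days before readout.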

Cc1nc(N2CCC3(CC2)COC(C)C3N)c(CO)nc1Sc1ccnc(N)c1Cl (configuration not stated) + CCn1c(-c2cccnc2C(C)OC)c2c3cc(ccc31)N1CCOC(CC(NC(=O)C(C(C)C)N(C)C(=O)C3(F)CCN(C(=O)C#CC(C)(C)N(C)C)CC3)C(=O)N3CCCC(N3)C(=O)OCC(C)(C)C2)C1 was tested, and the IC50 (second compound 0.000949 µM) was greater than 10 µM, the IC50 (second compound 0.003 µM) was greater than 10 µM and the IC50 (second compound 0.00949 µM) was greater than 10 µM. It also gave an IC50 (second compound 0.03 µM) greater than 10 µM, an IC50 (second compound 0.0949 µM) greater than 10 µM and an IC50 (second compound 0.3 µM) greater than 10 µM. The viability, T/C (second compound 0.000949 µM, first compound 0.0316 µM) was 94.1%, the viability, T/C (second compound 0.000949 µM, first compound 0.1 µM) was 108% and the viability, T/C (second compound 0.000949 µM, first compound 0.316 µM) was 86.1%. It also gave a viability, T/C (second compound 0.000949 µM, first compound 1 µM) of 79.1%, a viability, T/C (second compound 0.000949 µM, first compound 3.16 µM) of 78.1% and a viability, T/C (second compound 0.000949 µM, first compound 10 µM) of 70.2%. It also gave a viability, T/C (second compound 0.003 µM, first compound 0.0316 µM) of 95.8%, a viability, T/C (second compound 0.003 µM, first compound 0.1 µM) of 98% and a viability, T/C (second compound 0.003 µM, first compound 0.316 µM) of 95.4%. The viability, T/C (second compound 0.003 µM, first compound 1 µM) was 84.8%, the viability, T/C (second compound 0.003 µM, first compound 3.16 µM) was 80.3% and the viability, T/C (second compound 0.003 µM, first compound 10 µM) was 79.5%. It also gave a viability, T/C (second compound 0.00949 µM, first compound 0.0316 µM) of 90%, a viability, T/C (second compound 0.00949 µM, first compound 0.1 µM) of 99.6% and a viability, T/C (second compound 0.00949 µM, first compound 0.316 µM) of 97.9%. For the same compound, the viability, T/C (second compound 0.00949 µM, first compound 1 µM) was 96.2%, the viability, T/C (second compound 0.00949 µM, first compound 3.16 µM) was 80.4% and the viability, T/C (second compound 0.00949 µM, first compound 10 µM) was 72.7%. It also gave a viability, T/C (second compound 0.03 µM, first compound 0.0316 µM) of 104%, a viability, T/C (second compound 0.03 µM, first compound 0.1 µM) of 96.9% and a viability, T/C (second compound 0.03 µM, first compound 0.316 µM) of 85.3%. For the same compound, the viability, T/C (second compound 0.03 µM, first compound 1 µM) was 103%, the viability, T/C (second compound 0.03 µM, first compound 3.16 µM) was 83.9% and the viability, T/C (second compound 0.03 µM, first compound 10 µM) was 61.7%. For the same compound, the viability, T/C (second compound 0.0949 µM, first compound 0.0316 µM) was 90.5%, the viability, T/C (second compound 0.0949 µM, first compound 0.1 µM) was 92.8% and the viability, T/C (second compound 0.0949 µM, first compound 0.316 µM) was 84.2%. For the same compound, the viability, T/C (second compound 0.0949 µM, first compound 1 µM) was 95.1%, the viability, T/C (second compound 0.0949 µM, first compound 3.16 µM) was 83.9% and the viability, T/C (second compound 0.0949 µM, first compound 10 µM) was 74.2%. The viability, T/C (second compound 0.3 µM, first compound 0.0316 µM) was 110%, the viability, T/C (second compound 0.3 µM, first compound 0.1 µM) was 94.6% and the viability, T/C (second compound 0.3 µM, first compound 0.316 µM) was 83.2%. For the same compound, the viability, T/C (second compound 0.3 µM, first compound 1 µM) was 87.2%, the viability, T/C (second compound 0.3 µM, first compound 3.16 µM) was 85.5% and the viability, T/C (second compound 0.3 µM, first compound 10 µM) was 63.3%.
